Where “and” joins values, the source holds several entries; their conditions need not be identical. Equal values may be shown once.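 96-well plates; 48 h exposure; 5 concentrations. Endpoints by linear interpolation between flanking doses. Not reached: highest tested concentration assigned. GI50 marks 50% less growth. TGI: total growth inhibition.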
What was measured:
Assay in all cases: NCI anticancer screen, dose series, 48 h
NCI-H522 lung = test system: NCI-H522 lung
NCI-H23 lung = test system: NCI-H23 lung
RXF 393 renal = test system: RXF 393 renal
A498 renal = test system: A498 renal
LOX IMVI melanoma = test system: LOX IMVI melanoma
KM12 colon = test system: KM12 colon
SN12C renal = test system: SN12C renal
SNB-19 CNS = test system: SNB-19 CNS
U251 CNS = test system: U251 CNS
HT29 colon = test system: HT29 colon

| SMILES | TGI (NCI-H522 lung) | TGI (NCI-H23 lung) | TGI (RXF 393 renal) | TGI (A498 renal) | TGI (LOX IMVI melanoma) | TGI (KM12 colon) | TGI (SN12C renal) | TGI (SNB-19 CNS) | TGI (U251 CNS) | TGI (HT29 colon) | GI50 (NCI-H23 lung) | GI50 (RXF 393 renal) | GI50 (A498 renal) | GI50 (LOX IMVI melanoma) | GI50 (SN12C renal) | GI50 (SNB-19 CNS) | GI50 (U251 CNS) | GI50 (NCI-H522 lung) | GI50 (KM12 colon) | GI50 (HT29 colon) |
| --- | --- | --- | --- | --- | --- | --- | --- | --- | --- | --- | --- | --- | --- | --- | --- | --- | --- | --- | --- | --- |
| c1cc(CCN2CCCCC2)ccn1 | > 100 µM | > 100 µM | > 100 µM | > 100 µM | > 100 µM | > 100 µM | > 100 µM | > 100 µM | > 100 µM | > 100 µM |  |  |  |  |  |  |  |  |  |  |
| Cn1ccc2c(c1=O)C(=O)c1nccc3c1c-2nc1ccccc13 |  | 2.8 µM | 2.95 µM | 25.9 µM | 2.81 µM |  | 3.03 µM | 3.03 µM | 2.79 µM |  | 1270 nM | 1490 nM | 12500 nM | 1400 nM | 1560 nM | 1.59 µM | 1380 nM |  |  |  |
| Nc1ccn(CCO)c(=O)n1 | > 100 µM |  | > 100 µM | > 100 µM | > 100 µM | > 100 µM | > 100 µM |  | > 100 µM | > 100 µM |  |  |  |  |  |  |  |  |  |  |
| COC(C(=O)C(O)C(C)O)C1Cc2cc3cc(OC4CC(OC(C)=O)C(OC5CC(O)C(OC)C(C)O5)C(C)O4)cc(O)c3c(O)c2C(=O)C1OC1CC(OC2CC(OC3CC(C)(O)C(OC(=O)C(C)C)C(C)O3)C(O)C(C)O2)C(O)C(C)O1 (stereo not drawn) |  |  |  |  |  |  |  | 53.9 µM and > 100 µM |  | 0.991 µM and 3.48 µM and 2.1 µM |  |  | 154 nM and 24.8 nM |  |  | 0.0897 µM and 0.01 µM |  | 0.196 nM |  |  |
| COc1ccc(-c2cc(-c3ccccc3)nc(N3CCN(CCNc4ccnc5cc(Cl)ccc45)CC3)n2)cc1 |  | 5.23 µM | 2.27 µM | 20.7 µM | 3.24 µM | 4.04 µM | 3.34 µM | 13.2 µM | 3.45 µM |  | 1900 nM | 842 nM | 8150 nM | 1760 nM | 1640 nM | 3.19 µM | 1560 nM |  | 1940 nM |  |
| Cc1ccc(NC(=O)c2cc3ccccc3c(N=Nc3ccccc3O)c2O)c(C)c1 | 2.61 µM |  | 19.4 µM |  |  | 14.8 µM |  | 6.61 µM |  | 13.8 µM |  |  |  |  |  |  |  |  |  |  |
| CC(=O)NCCSC(=O)c1ccccc1 |  | 0.191 µM | 0.958 µM |  | 0.306 µM | 2.54 µM | 0.492 µM | 15.2 µM | 0.759 µM | > 78.2 µM |  |  |  |  |  |  |  |  |  |  |
| CCN(CCNc1ccc(C)c2sc3cc(Cl)ccc3c(=O)c12)CC(C)O (stereo not drawn) |  | 4.77 µM |  | 2.87 µM | 3.72 µM | 3.88 µM | 10.5 µM | 3.66 µM | 4.24 µM | 3.17 µM | 2530 nM |  | 1490 nM | 1850 nM | 2760 nM | 1.65 µM | 1940 nM |  | 1840 nM | 1650 nM |
| CS(=O)(=O)OCCn1cnc2nc(NC(=O)c3ccccc3)[nH]c(=O)c21 | > 100 µM |  | > 100 µM | > 100 µM | > 100 µM | > 100 µM | > 100 µM | > 100 µM | > 100 µM | > 100 µM |  |  |  |  |  |  |  |  |  |  |
| C[C@]12CC[C@@H]3c4ccc(O)cc4CC[C@H]3[C@@H]1CC[C@@H]2NS(=O)(=O)c1cccc(C(F)(F)F)c1 |  | 15.8 µM | 6.65 µM | 8.75 µM |  | 11.8 µM | 5.97 µM | 18.2 µM | 14.3 µM | 10.2 µM | 3760 nM | 2580 nM | 2700 nM |  | 2190 nM | 4.64 µM | 3750 nM |  | 3400 nM | 3390 nM |
| CCc1ccccc1N1CCN(C(=O)c2cc(OC)c(OC)c(OC)c2)CC1 | 0.029 µM | 23.3 µM |  | 0.985 µM | 29.3 µM | 2.64 µM | > 100 µM | > 56 µM | 4.14 µM | 0.617 µM |  |  |  |  |  |  |  |  |  |  |
| O=c1[nH]nc2ccccc2c1Cl |  | 35.9 µM |  | 33.2 µM | 37.5 µM | 26.6 µM | 34.2 µM | 30.5 µM | 29.2 µM | 23.6 µM |  |  |  |  |  |  |  |  |  |  |
| COC1(O)C(=O)c2ccccc2OC1(OC)c1ccccc1 (stereo not drawn) | > 100 µM | > 100 µM | > 100 µM | > 100 µM | > 100 µM |  | > 100 µM | > 100 µM | > 100 µM | > 100 µM |  |  |  |  |  |  |  |  |  |  |
| COc1cc2c3c(n(CCCNCC(OC)OC)c(=O)c2cc1OC)-c1cc2c(cc1C3=O)OCO2 | > 100 µM | 29.9 µM | 21.6 µM | 33.9 µM | > 29.8 µM | 34.6 µM |  | > 100 µM | > 48.6 µM | 32.2 µM | 1840 nM | 3840 nM | 14000 nM | 1460 nM |  | 10.2 µM | 4320 nM | 18200 nM | 2140 nM | 4990 nM |
| COc1ccc2c(c1)c(-c1nc(-c3c[nH]c4ncccc34)cs1)cn2CCCCN1CCOCC1 | 4.31 µM | 5.08 µM | 3.38 µM | 3.17 µM | 3.19 µM | 3.96 µM | 4.19 µM |  | 3.33 µM | 3.94 µM | 2140 nM | 1730 nM | 217 nM | 1710 nM | 1910 nM |  | 1730 nM | 2340 nM | 1930 nM | 2180 nM |
| O=C1Nc2ccccc2C1Cc1ccc([N+](=O)[O-])cc1 (stereo not drawn) | > 100 µM | > 100 µM | > 100 µM |  | > 100 µM | > 100 µM | > 100 µM | > 100 µM | > 100 µM | > 100 µM |  |  |  |  |  |  |  |  |  |  |
| O=C(O)CCSCCCN1C(=O)c2ccccc2C1=O |  | > 100 µM | > 100 µM |  |  | > 100 µM | > 100 µM | > 100 µM | > 100 µM | > 100 µM |  |  |  |  |  |  |  |  |  |  |
| COc1ccc(C(=O)/C=C/c2c(C(F)(F)F)nc3sccn23)cc1OC | 80.7 µM | 27.9 µM | 29.8 µM | 54.9 µM |  | 11.1 µM | > 100 µM | > 100 µM | > 100 µM | > 100 µM | 2780 nM | 2510 nM | 7580 nM |  | 2980 nM | 4.25 µM | 1870 nM | 2910 nM | 1970 nM | 2010 nM |
| CCCCCCC#Cc1ccccc1C#CCO | 38.6 µM | 9.74 µM | 32.9 µM |  | 49.3 µM | 37.6 µM | 39.7 µM | 31.7 µM | 34.6 µM |  | 3690 nM | 16600 nM |  | 20300 nM | 19400 nM | 16.3 µM | 16400 nM | 18700 nM | 18600 nM |  |
| O=C(/C=C/c1ccc(Cl)c(Cl)c1)c1ccc(F)cc1 | 18.5 µM | 83.2 µM |  | > 100 µM |  | 21.9 µM | 52.2 µM | 32.7 µM | 25.7 µM | 27.6 µM |  |  |  |  |  |  |  |  |  |  |
| COc1ccc(C2=NN(C(=O)COc3ccc(Cl)cc3)C(O)(c3ccc(Cl)cc3)C2)cc1 (stereo not drawn) | > 100 µM | > 100 µM |  |  | > 100 µM | > 100 µM | > 100 µM | > 100 µM | > 100 µM | > 100 µM |  |  |  |  |  |  |  |  |  |  |
| COc1ccc(-c2cnnn2-c2cc(OC)c3c(c2)OCO3)cc1 | 0.525 µM | > 100 µM |  | 0.633 µM | > 100 µM | > 30.8 µM | > 100 µM | > 100 µM | > 100 µM |  | 286 nM |  | 44.4 nM | 491 nM | 658 nM |  | 231 nM | 35.4 nM | 56.4 nM | 45.4 nM |
| Nc1c(Br)c(=O)[nH]c(=O)n1COCCO | > 100 µM | > 100 µM | > 100 µM |  | > 100 µM | > 100 µM | > 100 µM | > 100 µM | > 100 µM | > 100 µM |  |  |  |  |  |  |  |  |  |  |
| Cc1nn(-c2ccccc2)c2c1CC(=O)Nc1ccccc1-2 | 3.75 µM and 0.593 µM | > 100 µM | 5.85 µM |  | > 100 µM | > 100 µM | > 100 µM |  | > 100 µM |  | 357 nM |  | 27 nM | 431 nM |  |  | 282 nM | 170 nM | 88.8 nM | 90.6 nM |
| Cc1ccc(S(=O)(=O)NNC(=O)c2sc(-c3nc(C)c(C(=O)NNS(=O)(=O)c4ccc(C)cc4)s3)nc2C)cc1 |  | > 100 µM | > 100 µM | > 100 µM | > 100 µM | > 100 µM | > 100 µM | > 100 µM | > 100 µM | > 100 µM |  |  |  |  |  |  |  |  |  |  |
| CC1CC(c2cccc3c2OCO3)=Nc2ccccc2S1 (stereo not drawn) | > 100 µM | > 100 µM | > 100 µM | > 100 µM | > 100 µM | > 100 µM | > 100 µM | > 100 µM |  | > 100 µM |  |  |  |  |  |  |  |  |  |  |
| COc1ccc(C(Cc2cc(OC)c(OC)c(OC)c2)C(=O)O)cc1 (stereo not drawn) |  | > 100 µM |  | > 100 µM | > 100 µM | > 100 µM | > 100 µM | > 100 µM | > 100 µM | > 100 µM |  |  |  |  |  |  |  |  |  |  |
| Cc1cc(C)c2c(c1)Nc1ccccc1P2c1ccccc1 (stereo not drawn) |  | 83.8 µM | > 100 µM |  | > 100 µM |  | > 100 µM | 83.9 µM | > 100 µM | > 100 µM |  |  |  |  |  |  |  |  |  |  |
| NC(=NC1CCCCCCC1)c1ccc(N2CCN(c3ccc(C(N)=NC4CCCCCCC4)cc3)CC2)cc1 | 52.2 µM | 45.8 µM |  |  | > 100 µM | 19.1 µM | 69.3 µM | 27.6 µM | 15.3 µM | 23.1 µM | 6800 nM |  |  | > 100000 nM | 7620 nM | 13.5 µM | 2960 nM | 12800 nM | 5300 nM | 4880 nM |

— PubChem BioAssay (NCI)
